Tests used:
[1] = tested on: COVID-19 patients; details: anticoagulant treatment, reference 49; cited from earlier work
[2] = tested on: human pulmonary microvascular endothelial cells (hPMVEC); experiment: Basal intracellular nitric oxide production in hPMVEC (DAF-FM fluorescence) after hyaluronidase treatment
Experimental: Isolation and culture of human pulmonary microvascular endothelial cells (hPMVEC): hPMVEC were isolated from resected human lung as previously described (35, 36). Briefly, human peripheral lung tissue was finely minced, and digested in 0.3% type II collagenase at 37° C. The digested suspension was filtered, centrifuged, and washed in PBS. Endothelial cells were then isolated using magnetic Dynabeads coated with anti-human CD31 antibody. Isolated cells were resuspended in EGM-2 (Lonza #CC-3162) with 10% fetal bovine serum and placed at 37° C. in 5% CO2 until 50% confluent, then harvested and re-purified using anti-CD31-coated magnetic microbeads as above. PMVEC were propagated in EGM-2+10% FBS and 20 mM HEPES on fibronectin-coated flasks and passages 4-9 used.
Hyaluronidase treatment of hPMVEC: PMVEC (2.5×10^4/well) were plated on fibronectin-coated 4-well plates in EGM-2+10% FBS and 20 mM HEPES. After 2 days, media was changed to HBSS (+100 mM HEPES, no bicarb)+0.01% BSA and hPMVEC were treated for 1 h with hyaluronidase (0.5 mg/mL; Sigma #H3506). Following treatment, hPMVEC were loaded with a nitric oxide-sensitive fluorochrome (2 μM DAF-FM DA (Thermo Fisher #D23844) for 1h before lysing with 0.5% SDS in PBS. After centrifugation for 10 min at 1×10^4RCF, the fluorescence of triplicate aliquots of supernatant were measured using a Victor3 multilabel fluorescence microplate reader (Wallac Oy; Perkin Elmer, Inc.) at 485/520 for DAF-FM. The nitric oxide donor DETA NONOate (20 μM; Cayman #82120) was used as the positive control.

Compound: low molecular weight heparin
- overall survival advantage [1]: did not confer an overall survival advantage

Compound: NCCN(CCN)/[N+]([O-])=N/O [DETA NONOate]
- increase of nitric oxide production ([2]; positive control at 20 μM, compared to untreated controls (data not shown)): 16%

Compound: Hyaluronidase
- decrease of basal intracellular nitric oxide production ([2]; hyaluronidase 0.5 mg/mL for 1 h, compared to untreated PMVEC, n=5 separate experiments, P=0.008): 98%
- basal intracellular nitric oxide production after treatment (DAF-FM fluorescence) ([2]; hyaluronidase 0.5 mg/mL for 1 h, n=5 separate experiments): 64±87.5 RFUs

— patent US20230152317A1, “DIAGNOSIS AND TREATMENT OF COVID-19” (priority 2020, published 2023)
